One assay concerns the target Fasciola hepatica TIM (FhTIM) (Fasciola hepatica, UniProt S4UI50). Briefly: Inhibition of recombinant FhTIM, coupled enzyme assay. It counts as biochemical.
Conditions: not given
As for the experimental part:
Expression and purification of proteins: FhTIM, RabbitTIM and HsTIM were expressed in Escherichia coli and purified as described in the literature[31],[37]. […] Before use, extensive dialysis against 100 mM triethanolamine/10 mM EDTA (pH 7.4) was performed. […] Enzymatic activity was determined following the conversion of glyceraldehydes-3-phosphate into dihydroxyacetone phosphate in a coupled enzyme assay. The decrease in absorbance at 340 nm was followed in a multiplate reader VarioskanTM Flash Multimode Reader (Thermo ScientificTM, Waltham, MA, USA) at 38 °C. The reaction mixture (1 mL, pH 7.4) contained 100 mM triethanolamine, 10 mM EDTA, 0.2 mM NADH, 1 mM glyceraldehydes-3-phosphate and 0.9 units of α-glycerol phosphate dehydrogenase. The reaction was initiated by the addition of 5 ng/mL of the TIM of interest. For the inhibition studies, TIM was incubated at a concentration of 5 mg/mL in a buffer containing 100 mM triethanolamine, 10 mM EDTA, pH 7.4 and 10% of DMSO at 37 °C for 1 h. The mixture also contained the compounds, dissolved in DMSO, at the indicated concentrations. After 1 h, 10 µL were withdrawn and added to a final volume of 100 µL of the reaction mixture for the activity assay. The inhibition assay was performed in a 96-well microplate. […] The experiments were performed in triplicate in two independent experiments.
Fasciola hepatica TIM (FhTIM), sequence (S4UI50 entry or part of it): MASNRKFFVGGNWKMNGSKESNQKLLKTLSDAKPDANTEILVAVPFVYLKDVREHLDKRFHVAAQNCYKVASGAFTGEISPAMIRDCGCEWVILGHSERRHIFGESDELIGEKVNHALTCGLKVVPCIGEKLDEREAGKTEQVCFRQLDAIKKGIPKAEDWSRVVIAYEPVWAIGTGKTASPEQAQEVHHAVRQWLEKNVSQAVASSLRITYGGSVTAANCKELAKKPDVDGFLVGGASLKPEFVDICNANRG
Regarding `Cc1ccc(-c2nsc(=O)[nH]2)cc1` [Compound 191], the “FhTIM inhibition in words” value is recorded as “non-inhibitor”.

The same assay, now with this note: Table 1S, screening of 340 compounds in FhTIM; table head prints no unit, µM per b8/b9; read-out: IC50.
Broadly, the IC50 is the concentration that gives 50% inhibition. As for `C=CCn1c(C)csc1=NN=CC=Cc1ccccc1` [Compound 1135], the IC50 is above 100 µM.

Take `Cc1csc(=NN=Cc2cccs2)n1-c1ccccc1` [Compound 1103]: the IC50 was above 100 µM.

As for `NNC(=O)c1ccccn1` [Compound 717], the IC50 is above 100 µM. The same measure, in the same setting: under `COc1nn(CCCCCN(C)C)c2ccc([N+](=O)[O-])cc12` [Compound 469] stands above 100 µM. For the molecule `N#Cc1c2ccccc2[n+]([O-])n1C/C=C/c1ccccc1` [Compound 500], the concentration for half-maximal inhibition (IC50) was above 100 µM. On the same count and under the same terms, under `C(=Cc1ccco1)C=NN1CCN(Cc2ccccc2)CC1` [Compound 874] stands above 100 µM; under `O=[N+]([O-])c1ccc(C=NN=c2scc(-c3ccccc3)n2-c2ccccc2)s1` [Compound 268], above 100 µM; under `O=C(NN=Cc1ccccc1O)c1ccccc1Cl` [Compound 1250], above 100 µM. Still for that read-out and setting: in the case of `C=CCn1c(-c2ccc(OC)cc2)csc1=NN=CC=Cc1cccs1` [Compound 1133] it was above 100 µM; in that of `[O-][n+]1onc2ncc(Cl)cc21` [Compound 671], above 100 µM; in that of `C=CCn1c(C(=O)O)csc1=NN=Cc1ccc(S(=O)(=O)O)o1` [Compound 913], above 100 µM. On the same count and under the same terms, in the case of `NS(=O)(=O)NCc1ccccc1` [Compound 124] it was above 100 µM; in that of `O=[N+]([O-])c1ccc2c(c1)c(O)nn2CCOCCBr` [Compound 517], above 100 µM.

In the case of `N#Cc1c2ccccc2[n+]([O-])n1-c1ccc(Cl)cc1` [Compound 480], the IC50 was above 100 µM.

As for `O=C(C=CC=Cc1cccs1)C=CC=Cc1cccs1` [Compound 798], the IC50 is above 100 µM. Take `NC(=NO)c1ccc(Br)cc1` [Compound 1105]: the IC50 was above 100 µM. Still for that read-out and setting: in the case of `Cc1ccc2c(c1)=[N+]([O-])C(C)(C)[N+]=2[O-]` [Compound 109] it was above 100 µM. As for `O=C(CBr)c1csc(=NN=Cc2ccccc2)n1-c1ccccc1` [Compound 775], the half-inhibitory concentration (IC50) was above 100 µM. On the same count and under the same terms, in the case of `CCCN(CCCCCn1nc(OCc2ccccc2)c2cc([N+](=O)[O-])ccc21)CCC(C)C1CC=C(C)CC1` (centres unmarked) [Compound 199] it was above 100 µM; in that of `C=CCN1C(=O)CSC1=NN=CC=Cc1cccs1` [Compound 1138], above 100 µM; in that of `O=C(C=CC=Cc1ccco1)C=CC=Cc1ccco1` [Compound 793], above 100 µM. On the same count and under the same terms, in the case of `O=[N+]([O-])c1cc(CI)ccc1F` [Compound 769] it was 100 µM; in that of `C=CCNC(=S)NN=Cc1ccc2ccccc2c1` [Compound 296], above 100 µM. Same read-out and setting: under `O=S(=O)(NCCc1ccccc1)NCCc1ccccc1` [Compound 120] stands above 100 µM; under `Oc1ccccc1CN1N=Cc2ccccc2OB1F` [Compound 1198], above 100 µM. Consider `C=CCn1c(-c2csc(=NN=CC=Cc3cccs3)n2CC=C)csc1=NN=CC=Cc1cccs1` [Compound 1118], for which the concentration for half-maximal inhibition (IC50) is above 100 µM. Same read-out and setting: in the case of `CC(=O)N(C1=NN(C(C)=O)C(c2ccc([N+](=O)[O-])s2)S1)c1ccccc1` (centres unmarked) [Compound 130] it was above 100 µM. Still for that read-out and setting: in the case of `Cc1nnc[n+]([O-])c1C=Cc1ccc2c(c1)OCO2` [Compound 216] it was above 100 µM; in that of `CN1CC(=Cc2ccccc2)C(=O)C(=Cc2ccccc2)C1` [Compound 357], above 100 µM. In the case of `O=C1CC(=O)N(Cc2ccccc2)S(=O)(=O)N1Cc1ccccc1` [Compound 358], the half-maximal inhibitory concentration (IC50) was above 100 µM.

Take `C=CCn1c(C(=O)CN2CCN(CC=Cc3ccccc3)CC2)csc1=NN=CC=Cc1ccco1` [Compound 1112]: the concentration for half-maximal inhibition (IC50) is above 100 µM.

Consider `C=CCNC(=S)NN=Cc1cncc(Br)c1` [Compound 307], for which the IC50 is above 100 µM. On the same count and under the same terms, in the case of `Nc1ccc2c(c1)[n+]([O-])c1cc(Cl)ccc1[n+]2[O-]` [Compound 184] it was above 100 µM.

As for `COc1cc(/C=C/C(=O)CC(=O)/C=C/c2cc(OC)c3oc(=O)cc(C)c3c2)ccc1O` [Compound 915], the half-inhibitory concentration (IC50) was above 100 µM. Same read-out and setting: in the case of `C=CCn1c(-c2ccc(Br)cc2)csc1=NN=C/C=C/c1cccs1` [Compound 1137] it was 50 to 100 µM; in that of `C=CCn1c(-c2ccccc2)csc1=NN=CC=Cc1cccs1` [Compound 875], 50 to 100 µM; in that of `COc1ccc(C=Cc2cnnc[n+]2[O-])cc1` [Compound 365], above 100 µM. Still for that read-out and setting: in the case of `C=CCn1c(C(=O)NN2CCN(CC=Cc3ccccc3)CC2)csc1=NN=CC=Cc1ccco1` [Compound 1100] it was above 100 µM; in that of `O=C1CSC(=NN=Cc2cccs2)N1c1ccccc1` [Compound 293], above 100 µM. On the same count and under the same terms, in the case of `C=CCn1c(C)csc1=NN=Cc1ccc(S(=O)(=O)O)o1` [Compound 1130] it was above 100 µM; in that of `O=C1CSC(=NN=C/C=C/C=C/c2cccs2)N1c1ccccc1` [Compound 313], above 100 µM.

Consider `NC1=NC(=O)N=C(N)C1=Cc1ccco1` [Compound 575], for which the half-inhibitory concentration (IC50) fell in the range of 50 to 100 µM. The same measure, in the same setting: under `C=CCn1c(-c2ccccc2)csc1=NN=Cc1ccc(S(=O)(=O)O)o1` [Compound 876] stands above 100 µM; under `Cc1nnc[n+]([O-])c1C=Cc1ccc(N(C)C)cc1` [Compound 641], above 100 µM; under `[O-][n+]1onc2ccccc21` [Compound 1197], above 100 µM.

As to `Nc1nc(-c2ccc(Cl)cc2)cs1` [Compound 813], the 50% inhibitory concentration (IC50) was above 100 µM. `CN1CC(=Cc2ccc(S(=O)(=O)O)o2)C(=O)C(=Cc2ccc(S(=O)(=O)O)o2)C1` [Compound 1286]: the half-inhibitory concentration (IC50) is above 100 µM. Still for that read-out and setting: in the case of `Cc1nnc(C)[n+]([O-])c1C=Cc1ccc(N(C)C)cc1` [Compound 213] it was above 100 µM; in that of `C=CCn1c(C(=O)O)csc1=NN=CC=Cc1cccs1` [Compound 1126], above 100 µM.

Regarding `S=C(NN=Cc1cccs1)Nc1ccccc1` [Compound 279], the half-inhibitory concentration (IC50) is above 100 µM. On the same count and under the same terms, under `O=C1C(=Cc2cccs2)CCCC1=Cc1cccs1` [Compound 807] stands above 100 µM. Consider `NC1=NS(=O)(=O)N=C(N)C1N` [Compound 723], for which the IC50 is above 100 µM.

Turning to `C=CCn1c(C)csc1=NN=Cc1cccs1` [Compound 274], the 50% inhibitory concentration (IC50) fell in the range of 50 to 100 µM. On the same count and under the same terms, in the case of `O=S(=O)(O)c1ccc(C=NN=c2scc(-c3csc(=NN=Cc4ccccc4)n3-c3ccccc3)n2-c2ccccc2)o1` [Compound 784] it was above 100 µM; in that of `C=CCn1c(C(=O)N2CCN(CC=Cc3ccccc3)CC2)csc1=NN=CC=Cc1ccco1` [Compound 314], above 100 µM. For the molecule `O=C(CBr)C(=O)CSC(=NN=Cc1ccccc1)Nc1ccccc1` [Compound 777], the 50% inhibitory concentration (IC50) is above 100 µM.

Regarding `O=C(/C=C/c1ccco1)c1ccccc1O` [Compound 881], the half-inhibitory concentration (IC50) was 100 µM.

In the case of `NC(N)=N/N=C/c1ccc(O)cc1` [Compound 675], the IC50 was in the range of 50 to 100 µM.

Consider `C=CCN1C(=O)CSC1=NN=Cc1cccs1` [Compound 273], for which the IC50 is above 100 µM.

Regarding `CC(=O)N(C1=NN(C(C)=O)C(c2cccs2)S1)c1ccccc1` (centres unmarked) [Compound 284], the concentration for half-maximal inhibition (IC50) is above 100 µM.

Consider `NNC(=O)c1ccncc1` [Compound 1120], for which the IC50 is above 100 µM. As to `CSc1ccc(C=CC(=O)c2ccc([N+](=O)[O-])cc2)cc1` [Compound 1155], the IC50 was above 100 µM. The same measure, in the same setting: in the case of `COC(=O)NN=Cc1ccc2nonc2c1` [Compound 31] it was above 100 µM; in that of `Cc1csc(=NN=CC=Cc2ccco2)n1-c1ccccc1` [Compound 1131], above 100 µM. Same read-out and setting: under `CCCCNC(=O)NN=Cc1no[n+]([O-])c1C` [Compound 175] stands above 100 µM.

Regarding `Nc1nc(-c2ccccc2)cs1` [Compound 810], the 50% inhibitory concentration (IC50) is above 100 µM. Same read-out and setting: under `Cc1c(C=NNC(N)=O)no[n+]1[O-]` [Compound 159] stands above 100 µM; under `C=CCn1c(-c2ccc(Cl)cc2)csc1=NN=CC=Cc1ccc(C)o1` [Compound 872], above 100 µM. On the same count and under the same terms, under `CCN(CC)CCCNS(=O)(=O)NCCCN(CC)CC` [Compound 125] stands above 100 µM; under `C=CCn1c(C)csc1=NN=Cc1ccc2ccccc2c1` [Compound 904], above 100 µM. Same read-out and setting: under `O=[N+]([O-])c1ccc2c(c1)c(O)nn2CCCCCN1CCCCC1` [Compound 481] stands 50 to 100 µM; under `CC(C=CC(=O)C=CC(C)=Cc1ccco1)=Cc1ccco1` [Compound 809], above 100 µM.

With `N#CC(C#N)=CC=Cc1ccco1` [Compound 579], the 50% inhibitory concentration (IC50) was above 100 µM. Same read-out and setting: in the case of `CN(C)c1ccncc1` [Compound 1101] it was above 100 µM; in that of `Cc1ccc(-c2nsc(=O)[nH]2)cc1` [Compound 191], above 100 µM. The same measure, in the same setting: in the case of `C=CCn1c(C(=O)NN2CCOCC2)csc1=NN=CC=Cc1ccco1` [Compound 1124] it was above 100 µM. On the same count and under the same terms, in the case of `CC(=O)Nc1ccc(C=C2CN(C)CC(=Cc3ccc(NC(C)=O)cc3)C2=O)cc1` [Compound 1281] it was above 100 µM; in that of `NNC(=O)c1ccc2c(c1)OCO2` [Compound 711], above 100 µM. Consider `C=CCn1c(-c2ccc([N+](=O)[O-])cc2)csc1=NN=CC=Cc1ccc([N+](=O)[O-])s1` [Compound 131], for which the concentration for half-maximal inhibition (IC50) is above 100 µM.

(Values after publication PMC7018972, “Novel and selective inactivators of Triosephosphate isomerase with anti-trematode activity” (Scientific Reports, 2020).)
